Measured values: patent US9061069B2, “Use of constrained peptide mimic oligomers as vectorization agents” (CENTRE NATIONAL DE LA RECHERCHE SCIENTIFIQUE, priority 2009, dated 2015)
Where a SMILES comes first, the peptide text is derived from it. [ ]: non-standard residue; d: D form. The star is where a group is joined. Sta = CC(C)C[C@H](N)[C@@H](O)CC(=O)O; Isovaleryl = CC(C)CC(=O)*

How the values were obtained:
[1] = tested on: cells of the line MDA-MB-231; assay: cytotoxicity, cellular viability test MTT; type: cell-based, human; details: incubation of 5 days, 10^-5M
Description: The cytotoxicity of this novel class of molecules has also been determined in cells of the line MDA-MB-231 by using a cellular viability diagnostic test, MTT.

[2] = tested on: cancerous cells (MDA-MB-231, MCF7, LNCaP, HCT116, SaOs2); assay: cell growth / proliferation of tumoral lines, incubation for 5 days; type: cell-based; details: inhibitor alone
Description: FIG. 2 describes the cell growth (in percentage of number of cells with respect to a pepstatin control) of cancerous cells (mammary […] and MCF7, prostatics LNCaP, colic HCT116, osteoblastics SaOs2) as a function of their incubation for 5 days with 1 oligomer of AMPA (4497), pepstatin alone (Peps), [Val^1]-Pepstatin bonded to arginine (4567) and two conjugate inhibitors of cathepsin D-oligomer of AMPA bonded to an arginine residue (4564 and 4463). The negative percentages correspond to a reduction in the number of cells with respect to the initial cellular seeding.
FIG. 3 describes the cell growth (in percentage of number of cells with respect to a pepstatin control) of cancerous cells (MDA-MB-231, MCF7, LNCaP, HCT116, SaOs2) as a function of their incubation for 5 days with 1 oligomer of AMPA (4497), [Val^1]-Pepstatin bonded to conjugated arginine 5 (4567) and 4 [Val^1]-Pepstatin-oligomer of AMPA bonded to a lysine or arginine residue (4461, 4562, 4463, 4564). The negative percentages correspond to a reduction in the number of cells with respect to the initial cellular seeding.
The application of these vectors within the context of a tumoral pathology is now explored. […]

| Structure (SMILES) | effect on cellular viability (MTT) [1] | effect on the proliferation of tumoral cells [2] |
| --- | --- | --- |
| NC(=O)CN1C(=O)[C@H](NC(=O)CN2C(=O)[C@H](NC(=O)COCCOCCNC(=S)Nc3ccc4c(c3)C(=O)OC43c4ccc(O)cc4Oc4cc(O)ccc43)CSc3ccccc32)CSc2ccccc21 [JMV4131] | significant effect on cellular viability | – |
| CC(C)CC(=O)N[C@H](C(=O)N[C@H](C(=O)N[C@@H](CC(C)C)[C@@H](O)CC(=O)N[C@@H](C)C(=O)N[C@@H](CC(C)C)[C@@H](O)CC(=O)O)C(C)C)C(C)C [pepstatin A] (Isovaleryl-VV[Sta]A[Sta]-OH) | – | inactive |
